According to ChEMBL document CHEMBL1201862, “PubChem BioAssay data set” (2004):
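Five concentrations, 48 hours, 96-well plates. GI50 is the concentration that inhibits growth by half.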 The source made the active and inactive calls. Rule as the data show it: active = GI50 up to about 1.1 µM and inactive = higher.

Columns and labels:
Experiment in all cases: inhibition of tumour cell growth, NCI panel, 48 h
HCC 2998 = system: HCC 2998
T47D = system: T47D
ACHN = system: ACHN
EKVX = system: EKVX
HOP-62 = system: HOP-62
UO-31 = system: UO-31
SF-268 = system: SF-268
MOLT-4 = system: MOLT-4
MDA-MB-435 = system: MDA-MB-435
A498 = system: A498
NCI-H23 = system: NCI-H23
786-0 = system: 786-0
NCI/ADR-RES = system: NCI/ADR-RES
COLO 205 = system: COLO 205
OVCAR-3 = system: OVCAR-3
HCT-15 = system: HCT-15
HL-60 = system: HL-60
IGROV-1 = system: IGROV-1
SF-295 = system: SF-295
CAKI-1 = system: CAKI-1

CN(C)CCCN1CCC2(CCC(C(C)(C)C)CC2)CC1
GI50 (HCC 2998): 0.21 µM (active)
GI50 (T47D): 1.88 µM (inactive)
GI50 (ACHN): 7.05 µM (inactive)
GI50 (EKVX): 5.33 µM (inactive)
GI50 (HOP-62): 2.15 µM (inactive)
GI50 (UO-31): 1.56 µM (inactive)
GI50 (SF-268): 2.32 µM (inactive)
GI50 (MOLT-4): 1.77 µM (inactive)
GI50 (MDA-MB-435): 0.47 µM (active)
GI50 (A498): 2 µM (inactive)
GI50 (NCI-H23): 7.48 µM (inactive)
GI50 (786-0): 1.54 µM (inactive)
GI50 (NCI/ADR-RES): 5.08 µM (inactive)
GI50 (COLO 205): 1.51 µM (inactive)
GI50 (OVCAR-3): 3.1 µM (inactive)
GI50 (HCT-15): 2.22 µM
GI50 (HL-60): 0.603 µM (active)
GI50 (IGROV-1): 4.01 µM (inactive)
GI50 (SF-295): 2.03 µM (inactive)
GI50 (CAKI-1): 2.72 µM (inactive)

O=C(O)c1ccc(NCc2nc3cc4ccccc4cc3[nH]2)cc1
GI50 (HCC 2998): 87.9 µM (inactive)
GI50 (T47D): > 100 µM (inactive)
GI50 (ACHN): > 100 µM (inactive)
GI50 (EKVX): > 100 µM (inactive)
GI50 (HOP-62): > 100 µM (inactive)
GI50 (UO-31): > 100 µM (inactive)
GI50 (SF-268): > 100 µM (inactive)
GI50 (MOLT-4): > 100 µM (inactive)
GI50 (MDA-MB-435): > 100 µM (inactive)
GI50 (A498): > 100 µM (inactive)
GI50 (NCI-H23): > 100 µM (inactive)
GI50 (786-0): > 100 µM (inactive)
GI50 (NCI/ADR-RES): > 100 µM (inactive)
GI50 (COLO 205): > 100 µM (inactive)
GI50 (OVCAR-3): > 100 µM (inactive)
GI50 (HCT-15): 26.7 µM
GI50 (HL-60): > 20.5 µM (inactive)
GI50 (IGROV-1): > 100 µM (inactive)
GI50 (SF-295): > 100 µM (inactive)
GI50 (CAKI-1): > 100 µM (inactive)

Cc1ccc2c(O)cc(-c3ccc(Cl)s3)nc2n1
GI50 (HCC 2998): 1.34 µM (inactive)
GI50 (T47D): 1.04 µM (active)
GI50 (ACHN): 8.79 µM (inactive)
GI50 (EKVX): 6.92 µM (inactive)
GI50 (HOP-62): 2.31 µM (inactive)
GI50 (UO-31): 0.245 µM (active)
GI50 (SF-268): 4.1 µM (inactive)
GI50 (MOLT-4): 0.488 µM (active)
GI50 (MDA-MB-435): 0.223 µM (active)
GI50 (A498): 4.7 µM (inactive)
GI50 (NCI-H23): 0.889 µM (active)
GI50 (786-0): 1.21 µM (inactive)
GI50 (NCI/ADR-RES): 0.409 µM (active)
GI50 (COLO 205): 6.18 µM (inactive)
GI50 (OVCAR-3): 1.1 µM (active)
GI50 (HCT-15): 0.405 µM
GI50 (HL-60): 0.203 µM (active)
GI50 (IGROV-1): 0.564 µM (active)
GI50 (SF-295): 0.697 µM (active)
GI50 (CAKI-1): 3.24 µM (inactive)

CC1=NN(C(=O)CC(=O)Nc2ccccc2C)C(=O)C1/N=N\c1ccc(S(=O)(=O)c2ccc(/N=N/C3C(=O)N(C(=O)CC(=O)Nc4ccccc4C)N=C3C)cc2)cc1 (stereo not given)
GI50 (HCC 2998): > 100 µM (inactive)
GI50 (T47D): > 100 µM (inactive)
GI50 (ACHN): > 100 µM (inactive)
GI50 (EKVX): > 100 µM (inactive)
GI50 (HOP-62): > 100 µM (inactive)
GI50 (UO-31): > 100 µM (inactive)
GI50 (SF-268): > 100 µM (inactive)
GI50 (MOLT-4): > 100 µM (inactive)
GI50 (MDA-MB-435): > 100 µM (inactive)
GI50 (A498): > 100 µM (inactive)
GI50 (NCI-H23): > 100 µM (inactive)
GI50 (786-0): > 100 µM (inactive)
GI50 (NCI/ADR-RES): > 100 µM (inactive)
GI50 (COLO 205): > 100 µM (inactive)
GI50 (OVCAR-3): > 100 µM (inactive)
GI50 (HCT-15): > 100 µM
GI50 (HL-60): > 100 µM (inactive)
GI50 (IGROV-1): 68.9 µM (inactive)
GI50 (SF-295): > 100 µM (inactive)
GI50 (CAKI-1): > 100 µM (inactive)
